According to patent publication US20240051940A1, “SULFONAMIDES WITH EGFR INHIBITION ACTIVITIES AND THEIR USE THEREOF” (ACCUTAR BIOTECHNOLOGY INC., priority 2021, published 2024):

What was measured:
Format in all cases: cell-based
HCC827 = experiment: Cell growth inhibition (CellTiter-Glo), HCC827; conditions: Homo sapiens, 72 h, HCC827 cells, 3 days after administration
Protocol: (§1) 2. Cell Growth Inhibition for HCC827, HCC827-LTC, HCC827-DTC and NCI-H2073.
(§2) HCC827(ATCC), HCC827-LTC, HCC827-DTC and NCI-H2073 (ATCC) were seeded in 96-well plates at 5000 cells/well in 90 μL of RPMI growth medium containing 10% FBS and 1% Penicillin Streptomycin. Cells were incubated at 37° C. overnight. The following day, the test compound was administered to the cells by using 10× compound stock solution prepared in growth medium at various concentrations. After administration of the compound, cells were then incubated at 37° C. for 3 days. Before CellTiter-Glo assay, the plates were equilibrated at room temperature for approximately 10 minutes. 100 ul of CellTiter-Glo® Reagent (Promega) was added to each well. The plates were then incubated at room temperature for 10 minutes and luminescence was recorded by EnSpire plate reader (PerkinElmer).

[1] = test system: HCC827-LTC (HCC827 cells stably expressing human EGFR L858R/T790M/C797S, endogenous EGFR knocked out); experiment: Cell growth inhibition (CellTiter-Glo), HCC827-LTC; conditions: 72 h, 3 days after administration
Protocol: (§3) 1. Preparation of HCC827-LTC and HCC827-DTC Cell Lines
(§4) HCC827 cells (ATCC) were transduced with lentiviral particles expressing codon-optimized human EGFR L858R/T790M/C797S (LTC) mutant or del19/T790M/C797S (DTC) mutant, and then selecting under 5 ug/ml purimycin treatment for a week to generate HCC827 cells stably expressing EGFR LTC or DTC mutants. Next, endogenous EGFR gene in purimycin-selected HCC827 LTC or DTC cells was knocked out using CRISPR-Cas9 technology to ensure the growth of engineered HCC827 cells was solely dependent on exogenous EGFR LTC or DTC mutants. For the EGFR knockout, gRNA complex was prepared by combining Alt-R CRISPR-Cas9 tracrRNA and EGFR crRNA (5′-[…]-3′ for LTC) or (5′-[…]-3′ for DTC) (IDT-Integrated DNA Technologies), and then EGFR ribonucleoprotein (RNP) complex was prepared by combining gRNA complex and Alt-R S.p. Cas9 Nuclease V3 (IDT-Integrated DNA Technologies). Purimycin-selected HCC827 LTC or DTC cells were then electroporated with EGFR RNP complexes using Neon Transfection System (Thermo Fisher). Single clones of HCC827-LTC or HCC827-DTC with endogenous EGFR knockout were picked one week after electroporation and their EGFR knockout was validated by genomic DNA sequencing. HCC827-LTC or HCC827-DTC single clones were also further validated with loss of inhibitory activity by covalent EGFR inhibitors.
as §1, §2

[2] = test system: HCC827-DTC (HCC827 cells stably expressing human EGFR del19/T790M/C797S, endogenous EGFR knocked out); experiment: Cell growth inhibition (CellTiter-Glo), HCC827-DTC; conditions: 72 h, 3 days after administration
Protocol: as §3, §4, §1, §2

NCI-H2073 = experiment: Cell growth inhibition (CellTiter-Glo), NCI-H2073; conditions: 72 h, NCI-H2073 cells, 3 days after administration
Protocol: as §1, §2

COc1cc(N2CCC(N3CCN(C)CC3)CC2)c(C)cc1Nc1ncc(Br)c(Nc2ccc3nccnc3c2NS(C)(=O)=O)n1 [Compound 1, N-(6-((5-bromo-2-((2-methoxy-5-methyl-4-(4-(4-methylpiperazin-1-yl)piperidin-1-yl)phenyl)amino)pyrimidin-4-yl)amino)quinoxalin-5-yl)methanesulfonamide]
GI50 (HCC827): 30 to 100 nM
GI50 [1]: 100 to 300 nM
GI50 [2]: 100 to 300 nM
GI50 (NCI-H2073): 100 to 300 nM

CCc1cc(Nc2ncc(Br)c(Nc3ccc4nccnc4c3NS(C)(=O)=O)n2)c(OC)cc1N1CCC(N2CCN(C)CC2)CC1 [Compound 2, N-(6-((5-bromo-2-((5-ethyl-2-methoxy-4-(4-(4-methylpiperazin-1-yl)piperidin-1-yl)phenyl)amino)pyrimidin-4-yl)amino)quinoxalin-5-yl)methanesulfonamide]
GI50 (HCC827): < 30 nM
GI50 [1]: 30 to 100 nM
GI50 [2]: 30 to 100 nM
GI50 (NCI-H2073): 100 to 300 nM

COc1cc(N2CCC(N3CCN(C)CC3)CC2)c(C)cc1Nc1ncnc(Nc2ccccc2NS(C)(=O)=O)n1 [Compound 3, N-(2-((4-((2-methoxy-5-methyl-4-(4-(4-methylpiperazin-1-yl)piperidin-1-yl)phenyl)amino)-1,3,5-triazin-2-yl)amino)phenyl)methanesulfon-amide]
GI50 (HCC827): 30 to 100 nM
GI50 [1]: 100 to 300 nM
GI50 [2]: 100 to 300 nM
GI50 (NCI-H2073): 100 to 300 nM

COc1cc(N2CCC(N3CCN(C)CC3)CC2)c(C)cc1Nc1ncc(Cl)c(Nc2ccc3nccnc3c2NS(C)(=O)=O)n1 [Compound 4, N-(6-((5-chloro-2-((2-methoxy-5-methyl-4-(4-(4-methylpiperazin-1-yl)piperidin-1-yl)phenyl)amino)pyrimidin-4-yl)amino)quinoxalin-5-yl)methanesulfonamide]
GI50 (HCC827): < 30 nM
GI50 [1]: 100 to 300 nM
GI50 [2]: 30 to 100 nM
GI50 (NCI-H2073): 30 to 100 nM
